From US9358238B2, “Method of enhancing the performance of broiler chickens” (Intervet Inc., priority 2012, dated 2016)

What was measured:
[1] = system: Broiler chickens; settings: 1 ppm for 18 days (28 to 46 days of age); cited from earlier work
[2] = system: Broiler chickens; experiment: Broiler chickens fed zilpaterol daily at 1 ppm from day 8 to day 56 of age (Example 1); type: in vivo, chicken
From the text: Broiler chickens were fed zilpaterol every day at 1 ppm from day 8 until day 56 of age. The observed zilpaterol performance response was relatively small. In this study, non significant performance increases in Average Daily Gain (ADG) of 1.3-2.6% and Feed Efficiency (FE) of 0.6%-1.9% were reported.

[3] = system: broiler chickens (Cobb 500 strain); experiment: 42 day floor pen study, performance response of broiler chickens fed zilpaterol for 7 or 14 days (Example 2); type: in vivo
From the text: “Feed efficiency” refers to: feed consumed (lbs)/total live body weight (lbs). “Adjusted Feed efficiency” refers to feed consumed (lbs)/(total live body weight (lbs)+body weight (lbs) of mortalities).
“Average daily gain” refers to body weight gain (lbs)/number of days.
“Breast weight” refers to breast weight (lbs) at slaughter.
“Carcass yield” refers to carcass weight (lbs)/live body weight (lbs)×100.
“Breast yield” refers to breast weight (lbs)/live body weight (lbs)×100.
Zilpaterol hydrochloride was fed to broiler chickens in a 42 day floor pen study to evaluate the performance response of zilpaterol compared to a non-medicated control group. Six zilpaterol treatment groups consisted of three concentration levels (1, 3, and 5 ppm) and two feeding durations (7 and 14 days) and were administered in feed plus a non medicated control group. A total of 1,680 broiler chickens were allocated by sex to 56 pens with 30 birds/pen, and 4 pens/sex/group (240 birds/group). The 7 day zilpaterol treatments began at day 35 and continued to day 42 of age. The 14 day zilpaterol treatments began at day 28 and continued until day 42 of age.
Post-treatment, there were no statistically significant 2-way or 3-way interactions of sex with duration of treatment and concentration; therefore pooled results over sex are discussed. A summary of the performance response of broiler chickens fed various levels for zilpaterol (0, 1, 3, 5, ppm) and feeding durations (7, 14 days) compared to the control are shown in the following table:
A total of 1,680 broiler chickens (Cobb 500 strain) were allocated by sex to 56 pens (28 pens of males, 28 pens of females) with 30 birds per pen according to a randomized complete block design during a 42 day study. The six zilpaterol treatment groups were in a 2×3 factorial arrangement with two feeding durations of 7 or 14 days (i.e., days 35-42 or 28-42 respectively) and three zilpaterol concentration levels of 1, 3, or 5 ppm plus an un-supplemented (negative) control group. Treatment groups were randomly assigned by sex to pens within each block.

[4] = system: Japanese quails; settings: 0, 0.2, 0.225, 0.25 mg/kg of live body weight, 21 days, birds at 26 days of age; cited from earlier work
[5] = system: chickens; settings: skip a day feeding; 0, 0.2, 0.25, 0.3 mg/kg of live body weight, 20 days from 25 days of age; cited from earlier work
[6] = system: Broiler chickens; settings: 0, 5 and 10 mg/kg, 3 to 6 weeks of age; cited from earlier work
[7] = 1 ppm every day, day 8 until day 56 of age, non significant
[8] = 1 ppm in feed, 7 days (days 35-42)
[9] = 1 ppm in feed, 14 days (days 28-42)
[10] = 3 ppm in feed, 7 days (days 35-42)
[11] = 3 ppm in feed, 14 days (days 28-42)
[12] = 5 ppm in feed, 7 days (days 35-42)
[13] = 5 ppm in feed, 14 days (days 28-42)

## CC(C)(C)NCC(O)c1cc(Cl)c(N)c(Cl)c1 (stereo not drawn) [Clenbuterol]
[1]
  improvement in average daily gain (ADG) above controls: 3.3%
  improvement in feed efficiency (FE) above controls: 3.0%

## CC(C)NC1CCn2c(=O)[nH]c3cccc(c32)C1O (stereo not drawn) [Zilpaterol, 4,5,6,7-tetrahydro-7-hydroxy-6-(isopropylamino) imidazo[4,5,1-jk]-[1]benzazepin-2(1H)-one]
[2]; 1 ppm daily for 7 weeks, P<0.01
  carcass yield improvement compared to control: 2%
[2]; [7]
  performance increase in Average Daily Gain (ADG): 1.3-2.6%
  performance increase in Feed Efficiency (FE): 0.6%-1.9
[3]; 0 vs 1 ppm, 7 days
  Improvement (%) of Average Daily Gain: 5.4%
  Improvement (%) of Body Weight Day 42: 2.1%
  Improvement (%) of Breast Weight: 3.8%
  Improvement (%) of Carcass Yield: 4.0%
  Improvement (%) of Feed Efficiency (FE): 8.0%
[3]; 0 vs 1 ppm, 14 days
  Improvement (%) of Average Daily Gain: 3.3%
  Improvement (%) of Body Weight Day 42: 3.9%
  Improvement (%) of Breast Weight: 4.2%
  Improvement (%) of Carcass Yield: 1.8%
  Improvement (%) of Feed Efficiency (FE): 3.3%
[3]; 0 vs 3 ppm, 7 days
  Improvement (%) of Average Daily Gain: 18.5%
  Improvement (%) of Body Weight Day 42: 3.9%
  Improvement (%) of Breast Weight: 9.1%
  Improvement (%) of Carcass Yield: 1.7%
  Improvement (%) of Feed Efficiency (FE): 25.9%
[3]; 0 vs 3 ppm, 14 days
  Improvement (%) of Average Daily Gain: 9.2%
  Improvement (%) of Body Weight Day 42: 5.1%
  Improvement (%) of Breast Weight: 16.1%
  Improvement (%) of Carcass Yield: 2.9%
  Improvement (%) of Feed Efficiency (FE): 9.7%
[3]; 0 vs 5 ppm, 7 days
  Improvement (%) of Average Daily Gain: 23.8%
  Improvement (%) of Body Weight Day 42: 4.1%
  Improvement (%) of Breast Weight: 12.6%
  Improvement (%) of Carcass Yield: 3.9%
  Improvement (%) of Feed Efficiency (FE): 33.7%
[3]; 0 vs 5 ppm, 14 days
  Improvement (%) of Average Daily Gain: 13.7%
  Improvement (%) of Body Weight Day 42: 8.0%
  Improvement (%) of Breast Weight: 12.6%
  Improvement (%) of Carcass Yield: 2.8%
  Improvement (%) of Feed Efficiency (FE): 9.9%
[3]; [8]
  Body Weight Day 42: 4.816 lb
  Breast Weight: 1.133 lb
  Breast Yield: 23.91%
  Carcass Yield: 81.45%
  Feed Efficiency (FE) (Feed/Gain Ratio): 3.831
[3]; [9]
  Body Weight Day 42: 4.898 lb
  Breast Weight: 1.138 lb
  Breast Yield: 24.27%
  Carcass Yield: 79.79%
  Feed Efficiency (FE) (Feed/Gain Ratio): 2.632
[3]; [10]
  Body Weight Day 42: 4.902 lb
  Breast Weight: 1.191 lb
  Breast Yield: 23.82%
  Carcass Yield: 79.71%
  Feed Efficiency (FE) (Feed/Gain Ratio): 3.085
[3]; [11]
  Body Weight Day 42: 4.956 lb
  Breast Weight: 1.268 lb
  Breast Yield: 25.11%
  Carcass Yield: 80.62%
  Feed Efficiency (FE) (Feed/Gain Ratio): 2.301
[3]; [12]
  Body Weight Day 42: 4.910 lb
  Breast Weight: 1.230 lb
  Breast Yield: 26.12%
  Carcass Yield: 81.41%
  Feed Efficiency (FE) (Feed/Gain Ratio): 2.760
[3]; [13]
  Body Weight Day 42: 5.093 lb
  Breast Weight: 1.230 lb
  Breast Yield: 24.20%
  Carcass Yield: 80.51%
  Feed Efficiency (FE) (Feed/Gain Ratio): 2.295
[3]; 5 ppm, 14 days (Z5-14d) versus Z0-0d, day 42
  body weight increase versus controls: 0.38 lb
[3]; 5 ppm, 14 days, 0.38 lb/0.174 lb/day
  reduction of time to reach the target market weight: approximately 2 days
[3]; any level (1, 3, 5 ppm), either feeding duration (7 or 14 day)
  effect on mean mortality rates compared to the control group: no significant effect
[3]; average over 1, 3, 5 ppm and 7, 14 days, control 25.46%
  breast yield, average of the zilpaterol treatment groups: 24.57%
[4]
  feed conversion ratio: improved
  weight gain, final body weight, feed intake and carcass, thigh, breast liver and carcass weight: not a significant difference
[5]
  feed efficiency: improved

## CC(CCc1ccc(O)cc1)NCC(O)c1ccc(O)cc1 (stereo not drawn) [ractopamine]
[6]
  daily body weight gain: not significantly affected
  feed conversion: not significantly affected
  feed intake: not significantly affected
